# Test results taken from patent US12528772B2, “Formulations of T-type calcium channel modulators and methods of use thereof” (Praxis Precision Medicines, Inc., priority 2019, dated 2026).
# Test system: T-type calcium channels in the thalamocortical circuit
# Test: Phase 1 sleep EEG in healthy volunteers (NREM sigma)
# Assay type: in vivo, human
# Conditions: FIG. 12
# Experimental: This was a 2-part, Phase 1 double blind, placebo controlled trial to assess the safety, tolerability, PK, and PD (including the KSS, the KDT, the SQSQ and 24-hour EEG recordings), of single, ascending (Part A: 20, 40, and 60 mg)) and multiple, ascending (Part B: 20 and 40 mg for 8 days) doses of the 20 mg tablet (formulation 3) in healthy participants. […] Variability in Cmax and AUC increased with increasing dose following a single oral dose of the 20 mg tablet formulation (formulation 3).
# The T-type calcium channels expressed in the thalamus are critically involved in the generation and modulation of sleep spindles which are prominent thalamocortical oscillations during NREM sleep. Sleep spindles are detected in the EEG as the sigma frequency band (11-15 Hz) (FIG. 12).
smiles,measurement,value
CC(C)(C)NC(=O)CN1CCC(CNC(=O)c2cc(F)cc(Cl)c2)CC1 [the compound of formula (I)],"power in the sigma frequency band (11-15 Hz), NREM sleep EEG",decrease of power in the sigma frequency band
